Source: ChEMBL document CHEMBL3507680, “University of Dundee, Gates Library screen for HepG2 cell viability”

Assay: Human HepG2 cell viability assay in 384 well format
Assay type: toxicity, cell-based
Design: dose 125 nL, time 70.5 hour; concentration not given beside the values
Settings: HepG2 cells, read-out: Inhibition

Row | Compound | cytotoxicity at 70.5 h
1 | CCn1c(=O)n(CC)c2cc(S(N)(=O)=O)ccc21 | -2.33%
2 | Cc1c(Br)cnn1C(C)C(=O)Nc1nncs1 (configuration not stated) | -14.2%
3 | CSc1ncn(-c2nc(N(C)C)nc(N(C)C)n2)n1 | 36.4%
4 | CCc1ccc(NC(=O)Nc2c(O)oc3ccccc3c2=O)cc1 | -9.4%
5 | CC(C)CNC(=O)CN(Cc1ccc(F)cc1)S(C)(=O)=O | -5.67%
6 | CN(C)c1ccc(CC2CCN(c3cnccn3)CC2)nn1 | -7.84%
7 | O=C(C1CCOCC1)N1CCOCC(Cc2ncccn2)C1 (configuration not stated) | -10.5%
8 | Cc1nc(C(=O)N2CCOC(Cc3ccccc3)C2)co1 (configuration not stated) | 23%
9 | CN(c1ccccc1)c1ccc(CC2CCCN(CCO)C2)nn1 (configuration not stated) | 30.2%
10 | Cc1nonc1CN(C)Cc1cnn(-c2ccc(F)cc2)c1 | 0.663%
11 | Fc1ccc(F)c(CN2CCC(c3cnccn3)CC2)c1 | -5.3%
12 | Nc1nccnc1CC1CCCN(Cc2c[nH]c3ccccc23)C1 (configuration not stated) | -9.09%
13 | Cc1c(C(=O)N[C@@H]2CC[C@@H](N3CCCC3)[C@@H]2O)[nH]c2ccc(F)cc12 | 6.16%
14 | c1cc(CNc2ncc(-c3cnccn3)c(C3CC3)n2)ccn1 | -2.59%
15 | Cc1cc(-c2ccc(=O)n(C3CCN(S(C)(=O)=O)CC3)n2)c(C)o1 | 17.2%
16 | CC(C)OC(=O)[C@@H]1CCN(C(=O)c2ccccn2)[C@@H]1c1ccc(F)cc1 | -6.08%
17 | O=C(O)[C@@H]1CCN(C(=O)c2ccccn2)[C@@H]1c1ccc(F)cc1 | -7.21%
18 | O=C(O)[C@@H]1CCN(C(=O)Cc2ccccn2)[C@@H]1c1ccc(F)cc1 | -7.95%
19 | c1cc(CNc2ncc(-c3cnccn3)c([C@@H]3CCCO3)n2)ccn1 | -5.57%
20 | COc1ccc(-c2nccc(C3CCCN3C)n2)cc1 (configuration not stated) | -2.22%
21 | CN1CCC(c2cc(CCO)ncn2)C1 (configuration not stated) | 1.56%

Row | Compound | cytotoxicity at 70.5 h
22 | CN1CCCC1c1ccnc(-c2ccccc2)n1 (configuration not stated) | -2.81%
23 | CC(C)c1ncc(CN2CCCC2c2[nH]ncc2C(=O)N(C)C)cn1 (configuration not stated) | -5.06%
24 | O=C(CC1CCN(CCc2ccccc2)CC1)N1CCCOCC1 | -1.73%
25 | CCN(CC)C(=O)CN1CCCC(c2nc(C)c3c(n2)N(C)CCC3)C1 (configuration not stated) | 0.707%
26 | CN1CCCC1c1ccnc(-c2ccccn2)n1 (configuration not stated) | -1.8%
27 | CN(C)c1nc(O)cc(C2CCN(C(=O)Cc3ccccn3)C2)n1 (configuration not stated) | 1.91%
28 | COc1ccccc1C1(O)CCCN(C(=O)c2cnc(SC)nc2)C1 (configuration not stated) | -3.73%
29 | CC(C)c1nc(O)c2nnn(C[C@H]3CCCN(Cc4cccs4)C3)c2n1 | 32.6%
30 | CC(C)c1nc(O)c2nnn(C[C@@H]3CCCN(Cc4ccsc4)C3)c2n1 | -2.22%
31 | CN(CCc1cn[nH]c1)C(=O)CCc1ccc(Cl)cc1 | -0.186%
32 | COc1ccc(N2CCN(C(=O)OC(C)(C)C)C(C(=O)O)C2)cc1 (configuration not stated) | -0.702%
33 | Cc1nc(C2CCCN(C(C)C)C2)sc1Br (configuration not stated) | -4.14%
34 | NC1(CN2CCOCC2)CCCCC1 | -2.02%
35 | CC(C)(C)OC(=O)N1CCN(c2ccc(F)cc2)CC1C(=O)O (configuration not stated) | -1.03%
36 | O=C(N[C@@H]1CC[C@@H](N2CCCC2)[C@@H]1O)c1cc2cccc(F)c2[nH]1 | -9.84%
37 | Cc1n[nH]c(C)c1CCC(=O)N[C@@H]1CCC[C@@H](Oc2ccccc2)[C@@H]1O | 21.6%
38 | Cc1noc(C)c1CCC(=O)N[C@@H]1CC[C@@H](Oc2cccnc2)[C@@H]1O | -3.66%
39 | O=C(c1cc(C2CCCCC2)no1)N1C[C@H]2C[C@H](O)C[C@H]2C1 | -4.06%
40 | Cc1noc(C2(C)CCCN(C(=O)C(C)C)C2)n1 (configuration not stated) | -0.687%
41 | Nc1ccc(CC2CCCN(Cc3c[nH]cn3)C2)nn1 (configuration not stated) | -2.3%
42 | CN(C)C(=O)C1(C)CN(Cc2cn(C)c3ccc(F)cc23)CCO1 (configuration not stated) | 9.86%

Row | Compound | cytotoxicity at 70.5 h
43 | COCCNC(=O)c1cc(C)nc(C2CCN(C)CC2)n1 | -3.41%
44 | COc1ncc(CN2CCCC2c2[nH]ncc2C(=O)N(C)C)cn1 (configuration not stated) | 23.2%
45 | O=C(NCC1(O)COCCN(Cc2cccc(O)c2)C1)c1cnccn1 (configuration not stated) | -3.85%
46 | CNC(=O)CN1CCOC(c2cccc(N)n2)C1 (configuration not stated) | -1.41%
47 | CC(=O)NCc1nccnc1C1CCN(C(=O)c2cc[nH]n2)CC1 | -6.68%
48 | Cc1nccc(N2CCCC(C)(c3[nH]ncc3C(N)=O)C2)n1 (configuration not stated) | -4.04%
49 | CN(C)c1cccc(C2CCN(c3ncccn3)CC2)n1 | -3.49%
50 | NC(=O)c1cnc(-c2ccccc2)nc1CCNC(=O)CN1CCCC1 | 9.13%
51 | COCCN1CCCC1(C)c1nc(C)cc(N)n1 (configuration not stated) | 0.23%
52 | O=C(C1CC1)N1CCC(O)(CN2CCN(c3ccccc3)CC2)C1 (configuration not stated) | -4.63%
53 | Cc1cc(-c2ccccc2C(=O)O)nc(C2CCCN2S(C)(=O)=O)n1 (configuration not stated) | -1.81%
54 | Cc1nn(C)cc1CN(Cc1ccccn1)Cc1ccccc1Cl | 4.5%
55 | Cc1cc(C)nc(C2CCCN2C(=O)c2coc(C)n2)n1 (configuration not stated) | 23%
56 | Cc1cc(CN2CCc3nc(-c4ccncc4)nc(O)c3CC2)c(C)s1 | -7.8%
57 | CC(C)C(C(N)=O)c1cccc(Cl)c1 (configuration not stated) | -3.86%
58 | Cn1cc(S(=O)(=O)Nc2ccc3[nH]c(C4CCC4)nc3c2)cn1 | 0.665%
59 | CNC(=O)C(c1cccc(Cl)c1)C(C)C (configuration not stated) | 17.1%
60 | Cc1ccccc1-n1ccnc1S(=O)(=O)Cc1nsc(N(C)C)n1 | -11%
61 | Cc1ccnc2c1NC(=O)CN2C(=O)CCC(F)(F)F | -6.32%
62 | CNC(=O)Cc1ccc(NC(=O)NCC(C)c2ncc(C)s2)cc1 (configuration not stated) | -12.5%
63 | CCOCCOC(C)C(=O)Nc1nccn1Cc1ccccc1 (configuration not stated) | -15%

Row | Compound | cytotoxicity at 70.5 h
64 | Cc1ccc(C)c(CC(=O)NC2CCC(N3C(=O)CCC3=O)CC2)c1 (configuration not stated) | -1.42%
65 | O=C(NCCn1ccnc1)C1COCC(=O)N1Cc1ccccc1 (configuration not stated) | 9.74%
66 | CC(C#N)NS(=O)(=O)c1cccc(C(C)C)c1 (configuration not stated) | -15.4%
67 | CCC1CCCCN1C(=O)Cn1cnc(C#N)n1 (configuration not stated) | -4.5%
68 | CC(C)OCCS(=O)(=O)N1CCN(Cc2cccn2C)CC1 | -8.85%
69 | CN(C)S(=O)(=O)N(C)C(c1cccnc1)c1ccc(F)c(F)c1 (configuration not stated) | 14.4%
70 | COCC(=O)N1CCN(C(C)C(=O)NC(C)C)CC1 (configuration not stated) | 5.85%
71 | CC(C)(C)c1cc(NC(=O)CN(Cc2ccco2)Cc2cccs2)on1 | 4.01%
72 | CC(C)(C)c1cc(NC(=O)CN(Cc2cccs2)Cc2cccs2)on1 | -8.34%
73 | CCOC(=O)N1CCC(C(=O)Nc2nnc(C(F)(F)F)[nH]2)CC1 | 5.31%
74 | CC(=O)N1CCC(C(=O)Nc2nnc(C(F)(F)F)[nH]2)CC1 | -8.53%
75 | CN(CCCOc1ccccc1)S(=O)(=O)N1CCOCC1 | -12.8%
76 | CN(CCOc1ccc(F)cc1)S(=O)(=O)N1CCOCC1 | -9.68%
77 | CC(=O)NCCNC(=O)c1sccc1Br | -16.2%
78 | COCCNC(=O)c1sc2ccccc2c1C1CCC(CN)CC1 (configuration not stated) | -1.66%
79 | Cc1nc(NCc2cccc(F)c2)cc(C2CCNCC2)n1 | 0.802%
80 | CC(C)NC(=O)c1sc2ccccc2c1[C@H]1CC[C@H](CN)CC1 | 38.7%
81 | c1nc(CN2CCCC(Cc3ccc(NC4CCCC4)nn3)C2)c[nH]1 (configuration not stated) | 0.181%
82 | Cc1ccccc1OC1CCN(CC(=O)Nc2cnn(C)c2C)CC1 | -2.68%
